# Key:
# [1] = Titration of ACC HCl salt solutions; type: physicochemical
# Protocol: When ACC HCl salt was added to water to a concentration of 10% w/w ACC the pH was determined to be 1.0±0.3. The solution was then titrated with each of sodium hydroxide, N,N dimethyl ethanolamine, triethanolamine, choline hydroxide, ammonium hydroxide dimethyl amine, and triethyl tetramine to achieve more basic solutions.
# Thus, ACC HCl salt solutions are inherently unstable at a pH range of 2.75 to 8.5.
# [2] = Non-aqueous solvent screening (solubility of ACC HCl); type: physicochemical; details: about 21° C.
# Protocol: ACC HCl salt was added at 1-gram increments to 1 liter of each of the solvents in Table 1 at about 21° C. while stirring until the salt would no longer solubilize.
# [3] = Chemical stability of ACC HCl in select non-aqueous solvents, 54 C, 3 weeks; type: physicochemical; details: for ACC HCl 3 weeks / ACC HCl % loss: 54 C, 3 weeks; for ACC HCl Initial: time 0
# Protocol: Formulations were prepared with 14% w/w initial concentration of ACC HCl and […] Tween® 20 in each of the following solvents: 1,3 propanediol; ethylene glycol; diethylene glycol; dimethyl lactamide; and N-methyl pyrrolidone. Each formulation was then stored at 54 C for 3 weeks, which is the equivalent of storage for 3 years at room temperature. ACC HCl salt concentration was measured at time 0 and at 3 weeks.
# [4] = Chemical stability of ACC HCl in select non-aqueous solvents, 5 or 54 C, 2 weeks; type: physicochemical; details: for % loss / ACC HCl 5 C., 2 weeks / ACC HCl 54 C., 2 weeks: 2 weeks; for ACC HCl Initial: time 0
# Protocol: Formulations were prepared with 14% w/w initial concentration of ACC HCl and 2.5% w/w Tween® 20 in each of the following solvents: polyethylene glycol and propylene glycol. Each formulation was then stored at 5 or 54 C for 2 weeks, which is the equivalent of storage for 2 years at room temperature. ACC HCl salt concentration was measured at time 0 and at 2 weeks.
# [5] = Stable non-aqueous ACC HCl salt formulation (solubility, stability at 5° C.); type: physicochemical; details: 13.6% ACC HCl salt, 84.4% propylene glycol, 2% Tween 20
# Protocol: A formulation was prepared containing 13.6% ACC HCl salt, 84.4% propylene glycol and 2% Tween® 20.
# Further, non-aqueous formulations of the present invention remained stable when placed at 5° C. Thus, specific non-aqueous formulations can stabilize ACC HCl salt.
# [6] = test system: cotton cotyledons; assay: Cotton cotyledon bioefficacy assay: effect of solution pH and ACC form on ethylene production; details: for Ethylene Production: 250 ppm, 48 hours after spray
# [7] = test system: Gala apple; assay: Apple fruitlet thinning assay; type: in vivo
# Protocol: Formulations 1-3 were diluted with water to 408 ppm ACC HCl salt (i.e. molar equivalent to 300 ppm ACC free acid) and applied to Gala apple fruit when mean fruit diameter was 20 mm along with ACC free acid at 300 ppm. The apple plants were allowed to reach fruit set and set fruits were counted and compared to an untreated control. Fruit set was calculated as the number of fruits which set on a sample of 100 flower clusters.
# [8] = Surfactant screening for stable ACC HCl salt solutions (titration with potassium hydroxide); type: physicochemical; details: addition at about 0.5% w/w
# Protocol: The solution was then titrated with potassium hydroxide to achieve a more basic solution. Due to the exothermic nature of the titration process, titration occurred in a water bath maintained at a temperature of 20° C.±5° C.
# [9] = Diethylene glycol with Tween 20
# [10] = Dimethyl lactamide with Tween 20
# [11] = N-methyl pyrrolidone with Tween 20
# [12] = Polyethylene glycol with 2.5% w/w Tween 20, 5 C
# [13] = Polyethylene glycol with 2.5% w/w Tween 20, 54 C
# [14] = Propylene glycol with 2.5% w/w Tween 20, 5 C
# [15] = Propylene glycol with 2.5% w/w Tween 20, 54 C
smiles,measurement,setting,value
"Cl.NC1(C(=O)O)CC1 [ACC HCl, 1-amino-1-cyclopropanecarboxylic acid hydrochloride salt]",pH of solution,[1]; ACC HCl salt added to water to 10% w/w ACC,1.0±0.3
same,pH at which all precipitates dissolve into solution,[1]; further titration with base,above 9.0
same,Measured Solubility of ACC HCl,"[2]; 1,3-propane diol",25 % w/w
same,Measured Solubility of ACC HCl,[2]; Diethylene glycol monomethyl ether,14 % w/w
same,Measured Solubility of ACC HCl,[2]; Diethylene glycol,25 % w/w
same,Measured Solubility of ACC HCl,[2]; Dimethyl lactamide,20 % w/w
same,Measured Solubility of ACC HCl,[2]; Dipropylene glycol,8 % w/w
same,Measured Solubility of ACC HCl,[2]; Ethyl lactate,14 % w/w
same,Measured Solubility of ACC HCl,[2]; Ethylene glycol,34 % w/w
same,Measured Solubility of ACC HCl,[2]; Fatty alcohol ethoxylate,14 % w/w
same,Measured Solubility of ACC HCl,[2]; Glycerin,14 % w/w
same,Measured Solubility of ACC HCl,[2]; Monoacetin,14 % w/w
same,Measured Solubility of ACC HCl,[2]; N-methyl-2-pyrrolidinone,20 % w/w
same,Measured Solubility of ACC HCl,[2]; Polyethylene glycol 200,21 % w/w
same,Measured Solubility of ACC HCl,[2]; Polyethylene glycol 400,14 % w/w
same,Measured Solubility of ACC HCl,[2]; Polyethylene glycol 600,14 % w/w
same,Measured Solubility of ACC HCl,[2]; Polypropylene glycol,14 % w/w
same,Measured Solubility of ACC HCl,[2]; Propylene carbonate,<2 % w/w
same,Measured Solubility of ACC HCl,[2]; Propylene glycol,27 % w/w
same,Measured Solubility of ACC HCl,[2]; The ester of 2-ethyl hexanol and natural lactic acid,14 % w/w
same,ACC HCl 3 weeks,"[3]; 1,3 propanediol with Tween 20",13.9 % w/w
same,ACC HCl % loss,"[3]; 1,3 propanediol with Tween 20",1.7 % loss
same,ACC HCl Initial,"[3]; 1,3 propanediol with Tween 20",14.14 % w/w
same,ACC HCl 3 weeks,[3]; [9],13.8 % w/w
same,ACC HCl % loss,[3]; [9],1.4 % loss
same,ACC HCl Initial,[3]; [9],~14% w/w
same,ACC HCl 3 weeks,[3]; [10],13.5 % w/w
same,ACC HCl % loss,[3]; [10],2.9 % loss
same,ACC HCl Initial,[3]; [10],13.9 % w/w
same,ACC HCl 3 weeks,[3]; Ethylene glycol with Tween 20,13.6 % w/w
same,ACC HCl % loss,[3]; Ethylene glycol with Tween 20,2.9 % loss
same,ACC HCl Initial,[3]; Ethylene glycol with Tween 20,14.0 % w/w
same,ACC HCl 3 weeks,[3]; [11],13.9 % w/w
same,ACC HCl % loss,[3]; [11],0.7 % loss
same,ACC HCl Initial,[3]; [11],14.0 % w/w
same,% loss,[4]; [12],−0.3%
same,"ACC HCl 5 C., 2 weeks",[4]; [12],14.20 % w/w
same,% loss,[4]; [13],2.5%
same,"ACC HCl 54 C., 2 weeks",[4]; [13],13.81 % w/w
same,ACC HCl Initial,[4]; Polyethylene glycol with 2.5% w/w Tween 20,14.16 % w/w
same,% loss,[4]; [14],0%
same,"ACC HCl 5 C., 2 weeks",[4]; [14],14.10 % w/w
same,% loss,[4]; [15],6.7%
same,"ACC HCl 54 C., 2 weeks",[4]; [15],13.15 % w/w
same,ACC HCl Initial,[4]; Propylene glycol with 2.5% w/w Tween 20,14.10 % w/w
same,solubility in non-aqueous solvents,[5],soluble
same,Ethylene Production,[6]; solution pH 2.5,26.9 nL/g FW/hr
same,Ethylene Production,[6]; solution pH 5.0,16.5 nL/g FW/hr
same,more ethylene generated at pH 2.5 than at pH 5.0,"[6]; same solution, pH 2.5 vs pH 5.0",65%
"NC1(C(=O)O)CC1 [ACC free acid, 1-amino-1-cyclopropanecarboxylic acid]",Fruit set,"[7]; 408 ppm ACC HCl salt (formulations) or 300 ppm ACC free acid, mean fruit diameter 20 mm",70 fruit/100 flower clusters
same,reduction of fruit set,[7]; compared to untreated control,20%
same,Ethylene Production,[6]; solution pH 2.5,31.1 nL/g FW/hr
same,Ethylene Production,[6]; solution pH 5.0,13.4 nL/g FW/hr
"O=C(O)CN(CCN(CC(=O)O)CC(=O)O)CC(=O)O [EDTA, ethylenediaminetetraacetic acid]",solution stability of ACC HCl salt solution,[8],further enhanced solution stability
